Assay: Inhibition of Helicobacter pylori alpha-carbonic anhydrase expressed in Escherichia coli assessed as inhibition constant preincubated for 15 mins prior to testing by phenol red-based stopped-flow CO2 hydration assay

**Q.** Which Ki does the source give for `Cn1nc(S(N)(=O)=O)s/c1=N/S(=O)(=O)c1ccc(C(C)(C)C)cc1` here?
**A.** 8.2 nM

Source: ChEMBL document CHEMBL4715805, “Structure-Activity Relationship for Sulfonamide Inhibition of Helicobacter pylori α-Carbonic Anhydrase” (J Med Chem, 2016)
